Reference: patent US20230381205A1, “COMPOSITIONS AND METHODS FOR TREATING NEURONAL DISORDERS WITH CANNABINOIDS” (INMED PHARMACEUTICALS INC., priority 2020, published 2023)

Assays:
Assay type in all cases: cell-based, human
[1] = tested on: differentiated SH-SY5Y cells; test: Neurite length / neuritogenesis in differentiated SH-SY5Y cells
Procedure: FIG. 12 provides representative photomicrographs illustrating CBGA mediated changes in neurite elongation and branching in differentiated SH-SY5Y cells in a dose dependent manner. […] FIG. 12 also provides a histogram showing gradual changes in neurite length following treatment with CBGA.
FIG. 14 Morphological characterization of CBGA, THC and CBN mediated changes in differentiated SH-SY5Y cells. SH-SY5Y cells were differentiated with RA (10 μM) for 5 days as indicated. (A) Representative confocal photomicrographs showing changes in the cellular distribution of Tuj1 in RA induced differentiated SH-SY5Y cells following treatment with CBGA, THC and CBN. (B) Histogram showing the effect of CBGA, CBN, THC on neurite length.

[2] = tested on: MAP2; test: Western blot of MAP2 neuritogenesis marker; settings: FIG. 15
Procedure: FIG. 15 CBGA upregulates the expression of MAP2 neuritogenesis marker. […] Changes in prominent intracellular marker of neurite growth, microtubule-associated protein 2 (MAP2) was determined using western blot analysis. Histogram showing densitometric analysis of relative expression of MAP2. β-Actin was used as a loading control.
For Western blot analysis, control and the treated cells were harvested and lysed in cold lysis buffer (150 mM NaCl, 50 mM Tris-HCl, 1% Triton X-100, 0.1% SDS, 0.5% Sodium deoxycholate, and 1% protease-phosphatase inhibitor mixture). The supernatants were collected and protein concentrations were determined using Bio-Rad protein assay (Bio-Rad Laboratories). Whole cell lysates (10 μg) were subjected to 10% SDS-polyacrylamide electrophoresis and transferred to nitrocellulose membrane. The membranes were blocked with 5% skim milk in TBS-T (Tris-buffered saline with 0.05% Tween-20) for 1 h at RT and blotted overnight in the presence of monoclonal anti-mouse MAP2 (1:1000, Sigma, cat. no. M1406), Tau (1:1000, Invitrogen, cat. no. AHB0042), TUJI (1:5000, BioLegend, cat. no. MMS-435P), BAX (1:1000, Cell signaling, cat. no. 2772) and rabbit polyclonal total and phosphorylated BCL (1:1000, Cell signaling, antibodies #2827 and 2870). […]

[3] = tested on: differentiated SH-SY5Y cells; test: Confocal immunofluorescence of MAP2 and neurite morphology; settings: FIG. 16
Procedure: SH-SY5Y cells were differentiated with RA (10 μM) for 5 days as indicated.
Accordingly, the effect of CBGA on the expression of MAP-2 was tested.

## CCCCCc1cc(O)c(C/C=C(\C)CCC=C(C)C)c(O)c1C(=O)O [CBGA, 3-[(2E)-3,7-dimethylocta-2,6-dienyl]-2,4-dihydroxy-6-pentylbenzoic acid]
[1]; 24 hours post treatment, FIG. 14 (B)
  neurite length: increased neurite length significantly
[1]; dose dependent, FIG. 12
  neuritogenesis (neurite length): significantly increased the neuritogenesis
[2]; CBGA 10 μM alone
  MAP2 expression, western blot: increased the expression of MAP2
[2]; CBGA 10 μM with Aβ
  MAP2 expression, western blot: abrogates Aβ mediated downregulation of MAP2 expression
[3]; CBGA 10 μM on otherwise untreated cells
  MAP-2 expression, corrected total cell fluorescence: promoted upregulation of MAP-2
[3]; CBGA alone
  neurite morphology: elongated neurites and enhanced arborization
[3]; CBGA treatment of Aβ1-42 exposed cells
  MAP2 expression: restores MAP2 expression
